# “And” between values parts separate entries of the source, which are not always exact repeats. Equal entries are not always repeated. “Also recorded” adds a separate entry of the source.
# Columns and labels:
# zebrafish embryos [1] = test: Skin Lightening Efficacy of All Analogs on Zebrafish Embryos (Table 1); format: in vivo
# Method: (§1) The testing protocols for these compounds are as follows: • a. […] The embryos were monitored and imaged throughout their development to track the development of melanin pigment relative to a control group to which water was administered (Protocol 1). • b. […] The embryos were again monitored and imaged throughout their development relative to a control group to which water was administered (Protocol 2). • c. Additionally, to test the ability of the pigment to recover after being treated with our drugs, all embryos were treated at 24 hpf with the chemicals until the 48 hpf or 64 hpf time period, then washed with water to remove the treatment. The embryos were again monitored and imaged throughout their development relative to a control group to which water was administered (Protocol 3).
# (§2) The black pigment (or melanin) is very easy to observe in zebrafish. In brief, adult zebrafish are taken to breed embryos. Morphologically normal embryos of 24 hours post fertilization (hpf) stage were selected for incubation in the drugs from 24 to 76 hours. During the incubation, the embryos are monitored and imaged (see FIGS. 1 and 3) to track the development of melanin. […] To broaden the comparison with other skin-whitening products, this project can also test at least three other compounds, Kojic acid, Gallic acid and Haginin. […] In the meantime, the whole organism context also allows us to examine the toxicological profile, if any, of these compounds.
# zebrafish embryos [2] = test: Inhibition of melanin synthesis in zebrafish embryos, treated 24-76 hpf (Protocol 1); format: in vivo; details: for pigmentation in comparison to the control group: zebrafish embryos treated 24 to 76 hpf
# Method: as §1, §2
# zebrafish embryos [3] = test: Effect on existing melanin and/or melanocytes, embryos treated at 48 hpf (Protocol 2); format: in vivo
# Method: (§3) The testing protocols for these compounds are as follows: • a. […] The embryos were monitored and imaged throughout their development to track the development of melanin pigment relative to a control group to which water was administered (Protocol 1). • b. To test the effects of the drugs on existing melanin and/or melanocytes, the embryos were treated with the chemicals at 48 hpf, after pigment had developed. The embryos were again monitored and imaged throughout their development relative to a control group to which water was administered (Protocol 2). • c. Additionally, to test the ability of the pigment to recover after being treated with our drugs, all embryos were treated at 24 hpf with the chemicals until the 48 hpf or 64 hpf time period, then washed with water to remove the treatment. The embryos were again monitored and imaged throughout their development relative to a control group to which water was administered (Protocol 3).
# To test the effects of the drugs on existing melanin and/or melanocytes, the embryos were treated with the chemicals A11, MEK-I and PTU at 48 hpf, after pigment had developed. The embryos were again monitored and imaged throughout their development according to Protocol 2.
# zebrafish embryos [4] = test: Pigment recovery after compound withdrawal (Protocol 3); format: in vivo; details: treated 24-48 hpf or 24-64 hpf, then washed; by 72 hpf
# Method: as §3
# It has been reported that melanin usually reappears after the withdrawal of skin whitening products. […] The pigmentation was monitored closely for 48-72 hours. Similarly, this experiment was repeated at least three times to gain a reproducible result.
# zebrafish embryos [5] = test: Toxicity in developing zebrafish embryos
# Method: as §2
# B16-F10 melanoma cells [6] = test: cells; format: cell-based
# B16-F10 melanoma cells [7] = test: Melanin in melanoma cells; format: cell-based, mouse; details: for Melanin: melanoma cells
# Excerpt: (MEK-I is a known MEK inhibitor as a comparison purchased from Sigma): […]
# [8] = system: transgenic melanoma zebrafish embryos; test: Melanoma formation and recovery in transgenic melanoma zebrafish embryos; format: in vivo
# Method: (§4) The intracellular signaling pathway that involves Raf and MEK is known to be the major pathway to regulate cell proliferation. Many current melanoma drugs such as cobimetinib works by inhibiting Raf or MEK. While they are effective in inhibiting melanoma growth, they exert different degrees of side effect on normal cells by inhibiting the Raf-MEK pathway. […] Also, with regard to FIG. 13, the compound SK-03-92 is shown to inhibit melanoma cell growth by approximately 10% at 10 μM and at 100% at 40 μM.
# MEK = MEK activity (FIG. 12)
# Excerpt: FIG. 12 are photo illustrations of MEK activity with exemplary embodiments of the human drug treatments of the present invention; and
# as §4
# MAPK = test: Western blot for phosphorylated MAPK in melanoma cells; format: cell-based, mouse; details: melanoma cells (FIG. 19A)
# Excerpt: We wanted to further understand the molecular mechanism of A11 and its derivatives by examining the activities of MAPK, Akt, and PRPP pathways which regulate cell proliferation and cell death.
# MAPK is involved in the major cell proliferation signaling pathway. In many cancer cells, MAPK is activated at high level by phosphorylation. Using the anti-phosphorylated-MAPK (p-MAPK) on western blot, it is very easy to understand the proliferation ability in cells. […] While the results are against our hypothesis and current understanding, it raises a very interesting mechanism of A11 which requires further investigation. […] The current understanding is that activated MAPK and Akt both lead to cell proliferation.
# MITF [9] = test: Western blot for MITF protein level in B16-F10 cells; format: cell-based, mouse; details: western blot vs DMSO control (FIG. 21)
# Excerpt: (§5) To understand how A11 inhibits melanoma proliferation, we examined the MITF expression level in A11-treated B16-F10 cells by western blot and RT-qPCR.
# MITF [10] = test: RT-qPCR of MITF (mit-f) in melanoma cells; format: cell-based, mouse
# Excerpt: as §5
# (§6) The results of several qPCR experiments using melanoma cells were compiled in FIG. 20. Pax3 and sox10 are genes determine the melanocyte precursors while mit-f is the specific transcription factor that initiates melanocyte differentiation. Dct and tyr genes are expressed in differentiated melanocytes. […] The decrease in magnitude is not significant likely due to the very heterogeneous cell types in melanoma.
# Pax3 = test: RT-qPCR of Pax3 in melanoma cells; format: cell-based, mouse
# Excerpt: as §5, §6
# [11] = system: DCT (dopachrome tautomerase); test: RT-qPCR of DCT in melanoma cells; format: cell-based, mouse
# Excerpt: as §5, §6
# tyrosinase = test: RT-qPCR of tyrosinase in melanoma cells; format: cell-based, mouse
# Excerpt: as §5, §6
smiles,measurement,setting,value
COc1cc(O)cc(/C=C/c2cccs2)c1 [CL6],Pigmentation,zebrafish embryos [1]; concentration not given,0%
"NC(=S)Nc1ccccc1 [PTU, phenylthiourea, reference compound]",pigmentation inhibition (in words),zebrafish embryos [2]; zebrafish embryos treated 24-76 hpf,nearly complete pigmentation loss
same,Pigmentation,"zebrafish embryos [2]; zebrafish embryos treated 24-76 hpf, 0.003%",10%
same,effect on existing pigment (in words),zebrafish embryos [3],remove existing pigment
same,existing pigment remaining,zebrafish embryos [3],20%
same,pigmentation recovered after wash-off,zebrafish embryos [4],100%
same,toxicity in embryos (in words),zebrafish embryos [5]; developing zebrafish embryos,various levels of toxicity
same,Average Melanoma growth (from the previous chart),B16-F10 melanoma cells [6]; concentration not given,107%
same,Growth,"B16-F10 melanoma cells [6]; melanoma cells, concentration not given",87% and 107% and 128% and 106%
same,Melanin,B16-F10 melanoma cells [7]; concentration not given,59% and 67% and 89% and 64%
CC1=C(/C=C/C(C)=C/C=C/C(C)=C/C(=O)O)C(C)(C)CCC1 [Tretinoin],pigmentation in comparison to the control group,zebrafish embryos [2]; 0.1%,80%
COc1cc(O)cc(/C=C/Sc2ccccc2C(C)C)c1 [SK0501],Pigmentation,zebrafish embryos [1]; concentration not given,0%
COc1cc(O)cc(/C=C/n2ccc(C(F)(F)F)n2)c1 [SK0951],Pigmentation,zebrafish embryos [1]; concentration not given,0%
OC[C@H]1O[C@@H](Oc2ccc(O)cc2)[C@H](O)[C@@H](O)[C@@H]1O [Arbutin],pigmentation in comparison to the control group,zebrafish embryos [2]; 100 μM,30%
"COc1cc(O)cc(/C=C/c2cc3ccccc3s2)c1 [SK0392, (E)-3-(2-(Benzo[b]thiophen-2-yl)vinyl)-5-methoxyphenol]",toxicity in embryos (in words),"zebrafish embryos [5]; zebrafish, in vivo",almost no detectable toxicity
same,Pigmentation,zebrafish embryos [1]; 50 uM,20% (50 uM)
same,Average Melanoma growth (from the previous chart),B16-F10 melanoma cells [6]; 10 μM,100%
same,inhibition at 10 µM,"B16-F10 melanoma cells [6]; Mus musculus, B16-F10, 10 μM (FIG. 13), read-out: inhibition of melanoma cell growth",~10%
same,inhibition at 40 µM,"B16-F10 melanoma cells [6]; Mus musculus, B16-F10, 40 μM (FIG. 13), read-out: inhibition of melanoma cell growth",100%
same,inhibition of melanoma cell growth / cell number (in words),B16-F10 melanoma cells [6]; melanoma cells,decrease of melanin as well as the cell number
same,Growth,"B16-F10 melanoma cells [6]; melanoma cells, 10 μM",100%
same,Melanin,B16-F10 melanoma cells [7]; 10 μM,97%
same,melanin in B16-F10 cells (in words),B16-F10 melanoma cells [7]; mouse cell line B16-F10,decrease of melanin
same,formation and recovery of melanoma (in words),[8],inhibited the formation and recovery of melanoma
same,MEK activity (in words),MEK,increasing MEK activity
COc1cc(O)cc(/C=C/Oc2cccc(C)c2)c1 [Analog A9],Pigmentation,zebrafish embryos [1]; concentration not given,10%
same,Average Melanoma growth (from the previous chart),B16-F10 melanoma cells [6]; 10 μM,78%
same,Average Melanoma growth (from the previous chart),B16-F10 melanoma cells [6]; 40 μM,76%
same,Growth,"B16-F10 melanoma cells [6]; melanoma cells, 10 μM",78%
same,Growth,"B16-F10 melanoma cells [6]; melanoma cells, 40 μM",76%
same,Melanin,B16-F10 melanoma cells [7]; 10 μM,101%
same,Melanin,B16-F10 melanoma cells [7]; 40 μM,96%
NC(=O)c1cccnc1 [Niacinamide],pigmentation in comparison to the control group,zebrafish embryos [2]; 1%,10%
"N#CC(=C(N)Sc1ccccc1N)C(C#N)=C(N)Sc1ccccc1N [MEK-I, reference compound]",Pigmentation,"zebrafish embryos [2]; zebrafish embryos treated 24-76 hpf, 10 μM",60%
same,effect on existing pigment (in words),zebrafish embryos [3],has no effect; also recorded: ineffective
same,pigmentation recovered after wash-off,zebrafish embryos [4],100%
same,toxicity in embryos (in words),zebrafish embryos [5]; developing zebrafish embryos,various levels of toxicity; also recorded: Notocord toxicity is present
same,Average Melanoma growth (from the previous chart),B16-F10 melanoma cells [6]; 10 μM,67%
same,Average Melanoma growth (from the previous chart),B16-F10 melanoma cells [6]; 20 μM,35%
same,Growth,"B16-F10 melanoma cells [6]; melanoma cells, 10 μM",72% and 62%
same,Melanin,B16-F10 melanoma cells [7]; 10 μM,104% and 78% and 94%
same,Melanin,B16-F10 melanoma cells [7]; 20 μM,82% and 84%
same,amount of p-MAPK / MAPK activity (in words),MAPK,effectively suppresses the amount of p-MAPK
same,MITF protein level (in words),MITF [9],high level of MITF
same,MITF (mit-f) mRNA expression (in words),MITF [10],no effect on the MITF transcription
same,Pax3 expression (in words),Pax3,increases Pax3 transcription
same,DCT expression (in words),[11],decreased
same,tyrosinase expression (in words),tyrosinase,decreased
COc1cc(O)cc(/C=C/n2ccc3ccccc32)c1 [SK0953],Pigmentation,zebrafish embryos [1]; concentration not given,0%
same,Average Melanoma growth (from the previous chart),B16-F10 melanoma cells [6]; 20 μM,71%
same,Growth,"B16-F10 melanoma cells [6]; melanoma cells, 20 μM",71%
same,Melanin,B16-F10 melanoma cells [7]; 20 μM,96%
COc1cc(O)cc(/C=C/Sc2ccccc2)c1 [CL4],Pigmentation,zebrafish embryos [1]; concentration not given,0%
same,Average Melanoma growth (from the previous chart),B16-F10 melanoma cells [6]; 10 μM,93%
same,Growth,"B16-F10 melanoma cells [6]; melanoma cells, 10 μM",93%
same,Melanin,B16-F10 melanoma cells [7]; 10 μM,107%
COc1cc(O)cc(/C=C/Oc2ccccc2)c1 [CL1],Pigmentation,zebrafish embryos [1]; 40 uM,0% (40 uM)
COc1cc(O)cc(/C=C/Oc2cccc(OC)c2)c1 [Analog A8],Pigmentation,zebrafish embryos [1]; concentration not given,10%
COc1cc(O)cc(/C=C/n2ncc3ccccc32)c1 [SK0954],Pigmentation,zebrafish embryos [1]; concentration not given,0%
COc1ccc(S/C=C/c2cc(O)cc(OC)c2)cc1 [SK0503],Pigmentation,zebrafish embryos [1]; concentration not given,0%
COc1cc(/C=C/Oc2ccccc2)cc(OC)c1 [CL2],Pigmentation,zebrafish embryos [1]; concentration not given,5%

# Reference: US10550095B2, “Cancerous cell growth inhibiting compounds” (WISYS TECHNOLOGY FOUNDATION, INC., priority 2016, dated 2020)
